Entries after “also recorded” stand apart in the source; their conditions may differ.
Columns and labels:
[1] = tested on: leukemia cells; conditions: U.S. Pat. No. 4,391,802; cited from earlier work
[2] = tested on: D deficient rat; assay: In vivo calcemic activity: serum calcium / bone calcium mobilization (atomic absorption spectroscopy); conditions: for SERUM CALCIUM: intraperitoneal, mean ± SEM; for effect on bone, in words: rat, in vivo
Procedure: (§1) In vivo Calcemic Activity
(§2) These studies were carried out with five to six rats per group. Male weanling rats were fed a vitamin D-deficient diet for one week and then shifted to the same diet but with calcium removed for three weeks. The hypocalcemic rats were dosed intraperitoneally with the indicated dose of compound per day for a total of 7 days. Twenty-four hours after the last dose all animals were killed by decapitation and serum calcium was measured by atomic absorption spectroscopy in the presence of 1.0% lanthanium chloride. Intestinal calcium transport was measureed by the everted gut sac technique of Martin and Deluca.

[3] = tested on: D deficient rat; assay: In vivo calcemic activity: intestinal calcium transport (everted gut sac technique); conditions: for TRANSPORT (S/M): intraperitoneal, mean ± SEM
Procedure: as §1, §2

[4] = target: T1, Procine Intestinal Nuclear Vitamin D Receptor (Sus scrofa, UniProt A3RGC1); conditions: VDR binding, ratio to 1,25(OH)2 D3
T1 sequence (A3RGC1 1-427): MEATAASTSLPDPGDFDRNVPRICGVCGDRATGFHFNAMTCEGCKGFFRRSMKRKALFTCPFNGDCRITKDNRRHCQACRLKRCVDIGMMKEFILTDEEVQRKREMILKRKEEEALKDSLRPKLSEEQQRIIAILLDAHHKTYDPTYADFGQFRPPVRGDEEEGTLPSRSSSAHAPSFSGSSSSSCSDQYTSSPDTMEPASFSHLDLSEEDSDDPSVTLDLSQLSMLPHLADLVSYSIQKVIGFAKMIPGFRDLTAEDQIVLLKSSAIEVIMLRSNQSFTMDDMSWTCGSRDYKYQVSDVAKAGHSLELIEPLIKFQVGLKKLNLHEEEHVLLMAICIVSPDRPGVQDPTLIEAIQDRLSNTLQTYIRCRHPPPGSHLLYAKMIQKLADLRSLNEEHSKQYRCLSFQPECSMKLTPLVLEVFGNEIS

[5] = tested on: HL-60 cells; assay: Differentiation of HL-60 cells (NBT reduction assay); type: cell-based, human; conditions: for Activity vs. 1,25(OH)2 D3: HL-60 differentiation, ratio to 1,25(OH)2 D3; for EC50: Homo sapiens, read-out: EC50 (concentration to induce differentiation in 50% of the cells; text: IC50), NBT reduction, HL-60; for in vitro differentiative (D) and anti-proliferative (I) activity, in words: HL-60, differentiation and proliferation; for differentiative activity (D) used for T.P.: relative to 1,25-(OH)2 D3
Procedure: Differentiation of HL-60 Cells.
The ability of the 14-epi-19-nor-vitamin analogs and the corresponding 19-nor-vitamin D analogs to induce differentiation in the human HL-60 promyelocyte cell line was measured by a nitroblue tetrazolium (NBT) reduction assay.

[6] = tested on: HL-60 cells; assay: Inhibition of HL-60 cell proliferation (thymidine incorporation assay); type: cell-based, human; conditions: for Activity vs. 1,25(OH)2 D3: HL-60 proliferation, ratio to 1,25(OH)2 D3; for EC50: Homo sapiens, read-out: EC50 (50% reduction in thymidine incorporation; text: IC50), thymidine incorporation, HL-60; for anti-proliferative activity (I) used for T.P.: relative to 1,25-(OH)2 D3
Procedure: Inhibition of HL-60 Cell Proliferation.
The ability of the 14-epi-19-nor-vitamin D analogs and the corresponding 19-nor-vitamin D analogs to inhibit proliferation of the HL-60 cell line was measured by thymidine incorporation assay.

[7] = target: T1, Procine Intestinal Nuclear Vitamin D Receptor; assay: biochemical
Source text: Binding to the Procine Intestinal Nuclear Vitamin D Receptor.

[8] = tested on: D deficient rat; assay: In vivo calcemic activity, overall; conditions: for calcemic activity used for T.P.: relative to 1,25-(OH)2 D3; for calcemic activity, in words: relative to 1,25-(OH)2 D3 or 19-nor compounds
Procedure: as §1, §2

[9] = tested on: D deficient rat; assay: In vivo activation of pro-drug (25-hydroxylation by the liver); conditions: inferred from in vivo activity
Procedure: as §2
The in vivo results also establish the PRO-DRUG concept for the 14-epi-19-nor-25-deoxy-analog. […] This minimal bone activity resulting in lower calcemic toxicity may have important clinical implications.

[10] = TABLE 1, 250 pmol/d/7 days, 5 rats
[11] = TABLE 1, 625 pmol/d/7 days, 5 rats
[12] = TABLE 2, 250 pmol/d/7 days, 5 rats
[13] = TABLE 3, 260 pmol/d/7 days, 6 rats
[14] = TABLE 2, 625 pmol/d/7 days, 5 rats
[15] = TABLE 2, 1300 pmol/d/7 days, 5 rats
[16] = TABLE 1, 1300 pmol/d/7 days, 5 rats
[17] = TABLE 3, 625 pmol/d/7 days, 6 rats
[18] = TABLE 3, 1300 pmol/d/7 days, 6 rats

SMILES | Activity vs. 1,25(OH)2 D3 [4] | EC50 [5] | EC50 [6] | EC50 [7] | SERUM CALCIUM [2, 10] | SERUM CALCIUM [2, 11] | TRANSPORT (S/M) [3, 10] | TRANSPORT (S/M) [3, 11] | SERUM CALCIUM [2, 12] | SERUM CALCIUM [2, 13] | TRANSPORT (S/M) [3, 12] | TRANSPORT (S/M) [3, 13] | SERUM CALCIUM [2, 14] | SERUM CALCIUM [2, 15] | Activity vs. 1,25(OH)2 D3 [5] | Activity vs. 1,25(OH)2 D3 [6] | TRANSPORT (S/M) [3, 14] | TRANSPORT (S/M) [3, 15] | further results
C=C1/C(=C\C=C2/CCC[C@]3(C)[C@@H]([C@H](C)CCCC(C)C)CC[C@@H]23)C[C@@H](O)C[C@@H]1O [1(OH)D3, 1α-hydroxyvitamin D3] | – | – | – | – | 4.8 ± 0.3 mg/100 ml | 5.9 ± 0.1 mg/100 ml | 8.1 ± 0.1 S/M | 10.6 ± 1.4 S/M | – | – | – | – | – | – | – | – | – | – | antileukemic activity (induction of differentiation), in words [1]: potent antileukemic activity
C=C1/C(=C\C=C2/CCC[C@]3(C)[C@@H]([C@H](C)CCCC(C)(C)O)CC[C@@H]23)C[C@@H](O)C[C@@H]1O [1,25(OH)2 D3, 1α,25-dihydroxyvitamin D3] | – | – | – | – | – | – | – | – | 5.3 ± 0.3 mg/100 ml | 5.36 ± 0.27 mg/100 ml | 7.8 ± 0.4 S/M | 7.18 ± 0.47 S/M | – | – | – | – | – | – | antileukemic activity (induction of differentiation), in words [1]: potent antileukemic activity
CC(C)CCC[C@@H](C)[C@H]1CC[C@H]2/C(=C/C=C3C[C@@H](O)C[C@H](O)C3)CCC[C@]12C [19-nor-1(OH)D3] | – | – | – | – | 3.4 ± 0.2 mg/100 ml | 3.7 ± 0.2 mg/100 ml | 6.3 ± 0.7 S/M | 8.6 ± 0.7 S/M | – | – | – | – | – | – | – | – | – | – | –
C[C@H](CCCC(C)(C)O)[C@H]1CC[C@H]2/C(=C/C=C3C[C@@H](O)C[C@H](O)C3)CCC[C@]12C [19-nor-1,25(OH)2 D3, 19-nor-1,25-dihydroxyvitamin D3, reference compound] | 0.2 | 13 nM | 60 nM | 4.2 nM | – | – | – | – | 3.6 ± 0.1 mg/100 ml | – | 4.8 ± 0.4 S/M | – | 3.6 ± 0.2 mg/100 ml | 3.7 ± 0.2 mg/100 ml | 0.40 | 0.5 | 4.9 ± 0.5 S/M | 4.8 ± 0.5 S/M | –
CC(C)CCC[C@H](C)[C@H]1CC[C@H]2/C(=C/C=C3C[C@@H](O)C[C@H](O)C3)CCC[C@]12C [20-epi-19-nor-1(OH)D3] | 0.0013 | – | – | 600 nM | 4.1 ± 0.1 mg/100 ml | 5.4 ± 0.3 mg/100 ml | 7.6 ± 0.5 S/M | 9.2 ± 1.1 S/M | – | – | – | – | – | – | – | – | – | – | SERUM CALCIUM [2, 16]: 6.7 ± 0.2 mg/100 ml; TRANSPORT (S/M) [3, 16]: 11.7 ± 1.4 S/M

Now from value to compound, other results behind:

Activity vs. 1,25(OH)2 D3 [4] | EC50 [5] | EC50 [6] | EC50 [7] | SMILES | SERUM CALCIUM [2, 10] | SERUM CALCIUM [2, 11] | TRANSPORT (S/M) [3, 10] | TRANSPORT (S/M) [3, 11] | SERUM CALCIUM [2, 12] | SERUM CALCIUM [2, 13] | TRANSPORT (S/M) [3, 12] | TRANSPORT (S/M) [3, 13] | SERUM CALCIUM [2, 14] | SERUM CALCIUM [2, 15] | Activity vs. 1,25(OH)2 D3 [5] | Activity vs. 1,25(OH)2 D3 [6] | TRANSPORT (S/M) [3, 14] | TRANSPORT (S/M) [3, 15] | further results
1.0 | 0.2 nM | 4 nM | 0.8 nM | C[C@@H](CCCC(C)(C)O)[C@H]1CC[C@H]2/C(=C/C=C3C[C@@H](O)C[C@H](O)C3)CCC[C@]12C [20-epi-19-nor-1,25(OH)2 D3, reference compound] | – | – | – | – | 5.7 ± 0.5 mg/100 ml | – | 7.3 ± 0.1 S/M | – | 6.3 ± 0.4 mg/100 ml | 6.6 ± 0.5 mg/100 ml | 25 | 7.5 | 8.2 ± 0.7 S/M | 8.7 ± 0.7 S/M | –
0.18 | 15 nM | 80 nM | 4.5 nM | C[C@H](CCCC(C)(C)O)[C@H]1CC[C@@H]2/C(=C/C=C3C[C@@H](O)C[C@H](O)C3)CCC[C@@]21C [[27], 14-epi-19-nor-1α,25-dihydroxyvitamin D3] | – | – | – | – | 3.6 ± 0.2 mg/100 ml | – | 4.1 ± 0.4 S/M | – | 3.2 ± 0.1 mg/100 ml | 3.4 ± 0.1 mg/100 ml | 0.33 | 0.4 | 3.2 ± 0.4 S/M | 3.5 ± 0.3 S/M | calcemic activity relative to the natural hormone ([8]; 5× the dose of 1,25-(OH)2 D3): less than 20%; calcemic activity used for T.P. [8]: < 0.2; calcemic activity, in words [8]: no calcemic activity at 5× the dose of 1,25-(OH)2 D3; also recorded: greatly reduced calcemic activity; in vitro differentiative (D) and anti-proliferative (I) activity, in words [5]: approximately half as active as 1,25-(OH)2 D3; differentiative activity (D) used for T.P. [5]: 0.33; cellular activity, in words ([5]; relative to native hormone): cellular activity similar to the native hormone; anti-proliferative activity (I) used for T.P. [6]: 0.4
< 0.0008 | – | – | > 1000 nM | CC(C)CCC[C@H](C)[C@H]1CC[C@@H]2/C(=C/C=C3C[C@@H](O)C[C@H](O)C3)CCC[C@@]21C [[28], 14-epi-20-epi-19-nor-1α-hydroxyvitamin D3] | – | – | – | – | – | 3.96 ± 0.05 mg/100 ml | – | 3.80 ± 0.23 S/M | – | – | – | – | – | – | SERUM CALCIUM [2, 17]: 4.11 ± 0.10 mg/100 ml; SERUM CALCIUM [2, 18]: 3.79 ± 0.05 mg/100 ml; effect on bone, in words [2]: no activity on bone; in vivo activation / 25-hydroxylation / clearance, in words [9]: has been 25-hydroxylated by the liver; also recorded: activated in vivo to the active drug product; TRANSPORT (S/M) [3, 17]: 5.14 ± 0.66 S/M; TRANSPORT (S/M) [3, 18]: 5.90 ± 0.49 S/M; activity on gut, in words ([3]; rat, in vivo): reduced activity on gut compared to the 25-hydroxy drug compound
0.33 | 0.5 nM | 0.66 nM | 2.5 nM | C[C@@H](CCCC(C)(C)O)[C@H]1CC[C@@H]2/C(=C/C=C3C[C@@H](O)C[C@H](O)C3)CCC[C@@]21C [[29], 14-epi-20-epi-19-nor-1α,25-dihydroxyvitamin D3] | – | – | – | – | – | 4.02 ± 0.16 mg/100 ml | – | 4.36 ± 0.30 S/M | – | – | 10.0 | 45 | – | – | calcemic activity used for T.P. [8]: < 0.2; calcemic activity, in words [8]: greatly reduced; SERUM CALCIUM [2, 17]: 3.66 ± 0.06 mg/100 ml; SERUM CALCIUM [2, 18]: 4.10 ± 0.20 mg/100 ml; effect on bone, in words [2]: no effect on bone at any of the doses tested; in vitro differentiative (D) and anti-proliferative (I) activity, in words [5]: most potent analog; times more potent than 1,25-(OH)2 D3 (D) ([5]; differentiative (D)): 10 times; differentiative activity (D) used for T.P. [5]: 8.0; times more potent than 1,25-(OH)2 D3 (I) ([6]; anti-proliferative (I)): 45 times; anti-proliferative activity (I) used for T.P. [6]: 56; TRANSPORT (S/M) [3, 17]: 6.94 ± 0.27 S/M; TRANSPORT (S/M) [3, 18]: 7.14 ± 0.44 S/M; activity on gut, in words ([3]; rat, in vivo): only minimal gut activity; gut activity relative to the natural hormone ([3]; rat, in vivo): 20%

Reference: patent publication US5936105A, “14-EPI-19-nor-vitamin D compounds and methods” (Tetrionics, Inc., priority 1998, dated 1999)
